Values joined by “and” are separate entries in the source; they are usually repeats but may differ in a detail not shown here. Equal entries are not always repeated. Where two headings read alike, the source gives them in different places.
How the values were obtained:
α1-adrenergic receptors = tested on: α1-adrenergic receptors; design: method as in PMID 20694066; settings: cited from earlier work
[1] = tested on: H1-histaminergic receptors; design: method as in PMID 20694066; settings: cited from earlier work
[2] = tested on: muscarinic–cholinergic receptors; design: method as in PMID 20694066; settings: cited from earlier work
monoamine oxidase = tested on: monoamine oxidase; design: method as in PMID 20694066; settings: cited from earlier work
[3] = design: method as in doi:10.4172/jbb.1000130; settings: cited from earlier work
[4] = Single-dose (Pristiq 100 mg, oral) pharmacokinetics in healthy volunteers, plasma LC-MS/MS, non-compartmental; format: in vivo, human
Source text: The present study was nested in a single-dose, open-label, randomized, pharmaco-bioequivalence study performed under biosafety and ethical standards. The data used were derived from 35 healthy volunteers who received the reference drug (Pristiq®, by Pfizer, Newbridge–Ireland) and who were selected for the study after assessment of their health status via clinical evaluation and a comprehensive set of laboratory tests. The same parameters were used to monitor adverse events post study.
The analytical method was validated according to the respective resolution of the Agência Nacional de Vigilância Sanitária [Brazilian Public Health Surveillance Agency] [9]. The study used an LC-MS/MS system to verify quantification and calculate pharmacokinetic parameters and performed chromatographic separations in an LC-20AD analytical pump (Shimadzu-Kyoto, Japan) using a SIL-20A HT autosampler (Shimadzu-Kyoto, Japan), coupled with mass spectrometry analyses using a Quattro Micro (Micromass, Newcastle, UK) mass spectrometer equipped with an electrospray ionization (ESI) source. […] was detected via a multiple reaction monitoring (MRM) transition of 264.33 > 58.15, and orphenadrine was detected via an MRM transition of 270.32 > 181.26. Data was acquired using MassLynx 4.1 (Waters, Newcastle, UK). More information on the validation method can be found in the Supplementary Materials, including chromatograms for the selectivity assay (Figure S1). Pharmacokinetic parameters were calculated employing a non-compartmental statistic using WinNonLin 8.3 software (Pharsight, New Jersey, USA).
Volunteers and Study Design
The study started with 48 enrolled participants. Of these, 13 participants desisted after drug administration. Of the 35 remaining participants, 23 different adverse events were reported for some of them.
The reference formulation was desvenlafaxine succinate monohydrate controlled-release coated tablet of 100 mg Pristiq® with administration of one single-dose tablet. The volunteers were hospitalized at 7:30 p.m. and had supper before 9:30 p.m. After an overnight fast, they received (at ∼5:40 a.m.) a tablet of 100 mg desvenlafaxine succinate monohydrate with 200 mL of water. The volunt eers then fasted for 4 h, after which period a standard lunch was served. A specific high-calorie diet was administered thirty minutes before taking the medication; Lunch: 4 hours after taking the medication; Afternoon snack:
8 hours after taking the medication; Dinner: 10 hours after taking the medication.
It was necessary to observe the ethical principle of non-maleficence due to the adverse event of nausea being considered very common (≥ 10%). the antiemetic (Dramin® B6 DL - IV - 30 mg / 100 mL saline / 30 minutes) was administered twice: the first dose immediately after administration of the study medication and a second dose 5:00 hours after administration of the study medication.
At 2 h before and 6, 8 and 12 h after the dose administration, vital signs were checked.
The recruitment period was 24 h, during which period, blood samples (8 mL) from a suitable antecubital vein were collected, post-dosing via an indwelling catheter, into […]
samples were centrifuged at ∼2,000×g for 10 min at 4°C, and the plasma was stored at - 70°C until assayed. Samples were handled under yellow light, due to the photosensitivity […]
Determination of Pharmacokinetic Profile by LC-MS/MS
Chromatographic separations were performed in an LC-20AD analytical pump and SIL-20A HT autosampler from Shimadzu. The stationary phase employed a Luna AgilLuna Agilent Polaris 5 µm C18-A 50 x 2,0mm column (Phenomenex). The mobile phase consisted of a solution of 10 mM ammonium acetate with 0.1% formic acid (Phase A) and acetonitrile with 0.1% formic acid (Phase B), flowing at 0.3 mL/min in proportion (2:8). The autosampler was maintained at 22°C, with an injection volume of 10 µl and 2.2- […]
Mass spectrometry was conducted on a Quattro Micro mass spectrometer from […]

[5] = cited from earlier work
[6] = design: method as in doi:10.4172/jbb.1000130; settings: cited from earlier work; remark: listed apart in the source
[7] = Adverse events monitored by clinical evaluation and laboratory tests after single dose; format: in vivo, human
Source text: The present study was nested in a single-dose, open-label, randomized, pharmaco-bioequivalence study performed under biosafety and ethical standards. The data used were derived from 35 healthy volunteers who received the reference drug ([…]®, by Pfizer, Newbridge-Ireland) and who were selected for the study after assessment of their health status via clinical evaluation and a comprehensive set of laboratory tests. The same parameters were used to monitor adverse events post study. At the beginning and end of the study, all participants underwent clinical evaluation and laboratory tests using the reference values proposed by […] or without clinical significance, according to a medical report. A complete summary of participants' characteristics is available in Table S1. Clinical and laboratory characteristics outside the normal referential criteria were reported as adverse events (Table S2). page 3: Pharmaceutics 2024, 16, 1385 3 of 6 1. Supplementary Methods Volunteers and Study Design The study started with 48 enrolled participants. Of these, 13 participants desisted after drug administration. Of the 35 remaining participants, 23 different adverse events were reported for some of them. The reference formulation was desvenlafaxine succinate monohydrate controlled- release coated tablet of 100 mg […]® with administration of one single-dose tablet. The volunteers were hospitalized at 7:30 p.m. and had supper before 9:30 p.m. After an overnight fast, they received (at ∼5:40 a.m.) a tablet of 100 mg desvenlafaxine succinate monohydrate with 200 mL of water. The volunt eers then fasted for 4 h, after which period a standard lunch was served. A specific high-calorie diet was administered thirty minutes before taking the medication; Lunch: 4 hours after taking the medication; Afternoon snack: 8 hours after taking the medication; Dinner: 10 hours after taking the medication. It was necessary to observe the ethical principle of non-maleficence due to the adverse event of nausea being considered very common (≥ 10%). the antiemetic ([…] - 30 mg / 100 mL saline / 30 minutes) was administered twice: the first dose immediately after administration of the study medication and a second dose 5:00 hours after administration of the study medication. At 2 h before and 6, 8 and 12 h after the dose administration, vital signs were checked. The recruitment period was 24 h, during which period, blood samples (8 mL) from a suitable antecubital vein were collected, post-dosing via an indwelling catheter, into Heparin lithium-containing tubes at 0, 1:00, 2:00, 3:00, 4:00, 5:00, 6:00, 6:15, 6:30, 6:45, 7:00, 7:15, 7:30, 7:45, 8:00, 8:20, 8:40, 9:00, 10:00, 12:00, 24:00, and 36:00, 48:00, 72.0h. The blood samples were centrifuged at ∼2,000×g for 10 min at 4°C, and the plasma was stored at - 70°C until assayed. Samples were handled under yellow light, due to the photosensitivity of the drug. Determination of Pharmacokinetic Profile by LC-MS/MS Chromatographic separations were performed in an LC-20AD analytical pump and SIL-20A HT autosampler from Shimadzu. The stationary phase employed a Luna AgilLuna Agilent Polaris 5 μm […] 50 x 2,0mm column (Phenomenex). The mobile phase consisted of a solution of 10 mM ammonium acetate with 0.1% formic acid (Phase A) and acetonitrile with 0.1% formic acid (Phase B), flowing at 0.3 mL/min in proportion (2:8). The autosampler was maintained at 22°C, with an injection volume of 10 μl and 2.2- minute duration. Mass spectrometry was conducted on a Quattro Micro mass spectrometer from Micromass, equipped with an electrospray ionization (ESI) source. […]

[8] = 35 healthy volunteers, single oral 100 mg Pristiq, plasma
[9] = 35 participants, single 100 mg dose

SMILES: CN(C)CC(c1ccc(O)cc1)C1(O)CCCCC1 (stereo not shown) [desvenlafaxine, O-desmethylvenlafaxine]
- effect on α1-adrenergic receptors (α1-adrenergic receptors): does not significantly affect
- effect on H1-histaminergic receptors [1]: does not significantly affect
- effect on muscarinic–cholinergic receptors [2]: does not significantly affect
- inhibition of monoamine oxidase (monoamine oxidase): nor does it inhibit
- volume of distribution ([3]; after intravenous administration): 3.4 L/kg
- excreted as the glucuronide metabolite [3]: ~ 19%
- excreted as the oxidative metabolite (N,O-didesmethylvenlafaxine) [3]: < 5%
- excreted unchanged [3]: ~ 45%
- mean half-life [3]: approximately 11 h
- bioavailability ([3]; oral intake): 80%
- time to maximum plasma concentrations (Cmax) ([3]; oral intake): 7.5 h
- AUC 0-t, Maximum [4, 8]: 10,338.49 h*ng/mL
- AUC 0-t, Minimum [4, 8]: 2711.68 ng·h/mL
- Cmax, Maximum [4, 8]: 469.15 ng/mL
- Cmax, Minimum [4, 8]: 123.16 ng/mL
- Kel, Maximum [4, 8]: 0.11 h⁻¹
- Kel, Minimum [4, 8]: 0.06 h⁻¹
- T ½, Maximum [4, 8]: 12.00 h
- T ½, Minimum [4, 8]: 6.63 h
- Tmax, Maximum [4, 8]: 12.00 h
- Tmax, Minimum [4, 8]: 4.00 h
- AUC(0-t) ([4]; human, plasma, po, 100 mg, 35 healthy volunteers, single oral 100 mg Pristiq, plasma, read-out: AUC 0-t, Mean): 6050 ng·h/mL
- AUC(0-t) ([4]; human, plasma, po, 100 mg, 35 healthy volunteers, single oral 100 mg Pristiq, plasma, read-out: AUC 0-t, Median): 5780 ng·h/mL
- Cmax ([4]; human, plasma, po, 100 mg, 35 healthy volunteers, single oral 100 mg Pristiq, plasma, read-out: Cmax, Mean): 290 ng/mL
- Cmax ([4]; human, plasma, po, 100 mg, 35 healthy volunteers, single oral 100 mg Pristiq, plasma, read-out: Cmax, Median): 276 ng/mL
- k el ([4]; human, plasma, po, 100 mg, 35 healthy volunteers, single oral 100 mg Pristiq, plasma, read-out: Kel, Mean (converted)): 2.22e-05 s⁻¹
- k el ([4]; human, plasma, po, 100 mg, 35 healthy volunteers, single oral 100 mg Pristiq, plasma, read-out: Kel, Median (converted)): 1.94e-05 s⁻¹
- half-life ([4]; human, plasma, po, 100 mg, 35 healthy volunteers, single oral 100 mg Pristiq, plasma, read-out: T ½, Mean (converted)): 9.43 h
- half-life ([4]; human, plasma, po, 100 mg, 35 healthy volunteers, single oral 100 mg Pristiq, plasma, read-out: T ½, Median (converted)): 9.35 h
- Tmax ([4]; human, plasma, po, 100 mg, 35 healthy volunteers, single oral 100 mg Pristiq, plasma, read-out: Tmax, Mean): 7.4 h
- Tmax ([4]; human, plasma, po, 100 mg, 35 healthy volunteers, single oral 100 mg Pristiq, plasma, read-out: Tmax, Median): 7.5 h
- k el ([4]; human, plasma, po, 100 mg, individual participants, single oral 100 mg Pristiq, read-out: Kel (converted)): 1.94e-05 s⁻¹
- half-life ([4]; human, plasma, po, 100 mg, individual participants, single oral 100 mg Pristiq, read-out: T1/2 (converted)): 10.1 h
- Tmax ([4]; individual participants P1-P35, single oral 100 mg Pristiq): 6.50 h and 8.67 h and 6.25 h and 4.00 h and 6.00 h and 8.33 h and 6.75 h and 7.00 h and 10.00 h and 5.00 h and 7.75 h and 12.00 h and 9.00 h
- blood cholesterol and triglyceride levels [5]: can increase
- participants with increased blood pressure ([5]; five participants of a clinical study): 10%
- systolic and diastolic blood pressure change ([5]; short-term desvenlafaxine treatment): small but statistically significant increases
- frequency of the adverse event nausea (very common) ([5]; stated as known frequency, no reference given): ≥ 10%
- plasma protein binding [6]: 30%
- Alanine Aminotransferase Increased, events count [7, 9]: 3
- Altered Erythrogram, events count [7, 9]: 1
- Altered Leukogram, events count [7, 9]: 3
- Anxiety, events count [7, 9]: 1
- Aspartate Transaminase Increased, events count [7, 9]: 5
- Cephalea, events count [7, 9]: 3
- Diarrhea, events count [7, 9]: 1
- General malaise, events count [7, 9]: 6
- Incresead triglycerides, events count [7, 9]: 2
- Leukocyturia, events count [7, 9]: 2
- Nausea, events count [7, 9]: 5
- Syncope, events count [7, 9]: 1
- Total Cholesterol Increased, events count [7, 9]: 1
- Vomiting, events count [7, 9]: 6
- Alanine Aminotransferase Increased, intensity ([7]; human, in vivo): Mild
- Altered Erythrogram, intensity ([7]; human, in vivo): Mild
- Altered Leukogram, intensity ([7]; human, in vivo): Mild
- Anxiety, intensity ([7]; human, in vivo): Mild
- Aspartate Transaminase Increased, intensity ([7]; human, in vivo): Mild
- Cephalea, intensity ([7]; human, in vivo): Mild
- Diarrhea, intensity ([7]; human, in vivo): Mild
- General malaise, intensity ([7]; human, in vivo): Mild
- Incresead triglycerides, intensity ([7]; human, in vivo): Mild
- Leukocyturia, intensity ([7]; human, in vivo): Mild
- Nausea, intensity ([7]; human, in vivo): Mild
- Syncope, intensity ([7]; human, in vivo): Mild
- Total Cholesterol Increased, intensity ([7]; human, in vivo): Mild
- Vomiting, intensity ([7]; human, in vivo): Mild
